The record followed here is patent publication US20090214529A9, “KINESIN INHIBITORS” (TaiGen Biotechnology Co., Ltd., priority 2007, published 2009).

The subject of one test is tumor cell. The experiment in a line: Cytotoxicity assay (MTS). Conditions: 72 h; incubation for three days; read-out: IC50, tumor cell growth inhibition (MTS). In kind it is cell-based. A digest of the protocol:
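Tumour cells seeded overnight, then exposed to varying compound concentrations for three days. Viability read by MTS/PMS conversion to formazan (2 h, 37 °C, absorbance 490 nm). Results given as blank-corrected T/C (%) against vehicle controls.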
Broadly, the IC50 is the point on the concentration scale where inhibition reaches its midpoint. For the molecule `CC(C)C(c1nc2c(oc3ccc(F)cc32)c(=O)n1Cc1ccc(Cl)o1)N(CCN)C(=O)c1ccc(Cl)cc1` (stereo not drawn) [Compound 169], the half-inhibitory concentration (IC50) was under 30 µM.
Still for that read-out and setting: next, `CC(C)C(c1nc2c(oc3ccc(F)cc32)c(=O)n1Cc1ccc(Cl)o1)N(CCN)C(=O)c1ccc(Br)cc1` (stereo not drawn) [Compound 170]: under 30 µM; `CC(C)C(c1nc2c(oc3ccc(F)cc32)c(=O)n1Cc1ccc(Cl)o1)N(CCN)C(=O)c1ccc(C(F)(F)F)cc1` (stereo not drawn) [Compound 171]: under 30 µM.
As to `CC(C)C(c1nc2c(oc3ccc(F)cc32)c(=O)n1Cc1ccc(C#N)s1)N(CCN)C(=O)c1ccc(Cl)cc1` (stereo not drawn) [Compound 172], the half-maximal inhibitory concentration (IC50) was under 30 µM.
Still for that read-out and setting: next, `CC(C)C(c1nc2c(oc3ccc(F)cc32)c(=O)n1Cc1ccc(C#N)s1)N(CCN)C(=O)c1ccc(Br)cc1` (stereo not drawn) [Compound 173]: under 30 µM; `Cc1ccc(C(=O)N(CCN)C(c2nc3c(oc4ccc(F)cc43)c(=O)n2Cc2ccc(C#N)s2)C(C)C)cc1F` (stereo not drawn) [Compound 174]: under 30 µM.
Still for that read-out and setting: next, `Cc1ccc(C(=O)N(CCCN)[C@@H](c2nc3c(oc4ccccc43)c(=O)n2Cc2ccccc2)C(C)C)cc1` [Compound 175]: under 30 µM.
Same read-out and setting: the same measure for `Cc1csc(Cn2c([C@@H](C(C)C)N(CCN)C(=O)c3ccc(C)c(F)c3)nc3c(oc4ccc(F)cc43)c2=O)c1` [Compound 176]: under 30 µM; for `Cc1ccc(C(=O)N(CCN)[C@@H](c2nc3c(oc4ccc(F)cc43)c(=O)n2Cc2cc(C#N)cs2)C(C)C)cc1` [Compound 178]: under 30 µM.
Consider `Cc1ccc(C(=O)N(CCN)[C@@H](c2nc3c(oc4ccc(F)cc43)c(=O)n2Cc2cc(C)cs2)C(C)C)cc1` [Compound 179], for which the half-maximal inhibitory concentration (IC50) was under 30 µM.
The same measure, in the same setting: the same measure for `Cc1ccc(Cn2c([C@@H](C(C)C)N(CCN)C(=O)c3ccc(C)cc3)nc3c(oc4ccc(F)cc43)c2=O)cc1` [Compound 180]: under 30 µM; for `Cc1csc(Cn2c([C@@H](C(C)C)N(CCN)C(=O)c3ccc(Cl)cc3)nc3c(oc4ccc(F)cc43)c2=O)c1` [Compound 181]: under 30 µM.
Still for that read-out and setting: the same measure for `Cc1ccc(C(=O)N(CCN)[C@@H](c2nc3c(oc4ccc(F)cc43)c(=O)n2Cc2ccc(Cl)s2)C(C)C)cc1` [Compound 182]: under 30 µM.
The same measure, in the same setting: the same measure for `Cc1ccc(C(=O)N(CCN)[C@@H](c2nc3c(oc4ccc(F)cc43)c(=O)n2Cc2ccc(Br)s2)C(C)C)cc1` [Compound 183]: under 30 µM; for `Cc1ccc(Cn2c([C@@H](C(C)C)N(CCN)C(=O)c3ccc(Cl)cc3)nc3c(oc4ccc(F)cc43)c2=O)cc1` [Compound 184]: under 30 µM.
As for `Cc1ccc(C(=O)N(CCN)[C@@H](c2nc3c(oc4ccc(F)cc43)c(=O)n2Cc2ccco2)C(C)C)cc1` [Compound 185], the IC50 is under 30 µM.
The same measure, in the same setting: the same measure for `Cc1ccc(C(=O)N(CCN)[C@@H](c2nc3c(oc4ccc(F)cc43)c(=O)n2Cc2ccco2)C(C)C)cc1F` [Compound 186]: under 30 µM; for `Cc1ccc(C(=O)N(CCN)[C@@H](c2nc3c(oc4ccc(F)cc43)c(=O)n2Cc2cccc(F)c2)C(C)C)cc1` [Compound 187]: under 30 µM; for `Cc1ccc(C(=O)N(CCN)[C@@H](c2nc3c(oc4ccc(F)cc43)c(=O)n2Cc2cccc(F)c2)C(C)C)cc1F` [Compound 188]: under 30 µM.
The same measure, in the same setting: the same measure for `Cc1ccc(C(=O)N(CCN)[C@@H](c2nc3c(oc4ccc(F)cc43)c(=O)n2Cc2ccc(Cl)o2)C(C)C)cc1` [Compound 189]: under 30 µM.
The same measure, in the same setting: next, `Cc1ccc(C(=O)N(CCN)[C@@H](c2nc3c(oc4ccc(F)cc43)c(=O)n2Cc2ccc(Cl)o2)C(C)C)cc1F` [Compound 190]: under 30 µM; `Cc1ccc(C(=O)N(CCN)[C@@H](c2nc3c(oc4ccc(F)cc43)c(=O)n2Cc2ccccc2)C(C)C)cc1` [Compound 191]: under 30 µM; `Cc1ccc(C(=O)N(CCN)[C@@H](c2nc3c(oc4ccc(F)cc43)c(=O)n2Cc2ccccc2)C(C)C)cc1F` [Compound 192]: under 30 µM.
For the molecule `CC(C)[C@H](c1nc2c(oc3ccc(F)cc32)c(=O)n1Cc1ccccc1)N(CCN)C(=O)c1ccc(Cl)cc1` [Compound 193], the half-inhibitory concentration (IC50) was under 30 µM.
Same read-out and setting: the same measure for `Cc1ccc(C(=O)N(CCN)[C@@H](c2nc3c(oc4ccc(F)cc43)c(=O)n2Cc2ccsc2)C(C)C)cc1` [Compound 194]: under 30 µM; for `Cc1ccc(C(=O)N(CCN)[C@@H](c2nc3c(oc4ccc(F)cc43)c(=O)n2Cc2ccsc2)C(C)C)cc1F` [Compound 195]: under 30 µM; for `Cc1ccc(C(=O)N(CCN)[C@@H](c2nc3c(oc4ccc(F)cc43)c(=O)n2Cc2ccoc2)C(C)C)cc1` [Compound 196]: under 30 µM.
On the same count and under the same terms, the same measure for `Cc1ccc(C(=O)N(CCN)[C@@H](c2nc3c(oc4ccc(F)cc43)c(=O)n2Cc2ccoc2)C(C)C)cc1F` [Compound 197]: under 30 µM; for `CC(C)[C@H](c1nc2c(oc3ccc(F)cc32)c(=O)n1Cc1ccoc1)N(CCN)C(=O)c1ccc(Cl)cc1` [Compound 198]: under 30 µM; for `Cc1ccc(C(=O)N(CCN)[C@@H](c2nc3c(oc4ccc(F)cc43)c(=O)n2Cc2cccs2)C(C)C)cc1` [Compound 199]: under 30 µM.
As to `Cc1ccc(C(=O)N(CCN)[C@@H](c2nc3c(oc4ccc(F)cc43)c(=O)n2Cc2cccs2)C(C)C)cc1F` [Compound 200], the IC50 is under 30 µM.
Still for that read-out and setting: the same measure for `CC(C)[C@H](c1nc2c(oc3ccc(F)cc32)c(=O)n1Cc1cccs1)N(CCN)C(=O)c1ccc(Br)cc1` [Compound 201]: under 30 µM; for `CC(C)[C@H](c1nc2c(oc3ccc(F)cc32)c(=O)n1Cc1ccsc1)N(CCN)C(=O)c1ccc(Br)cc1` [Compound 202]: under 30 µM.
On the same count and under the same terms, the same measure for `CC(C)[C@H](c1nc2c(oc3ccc(F)cc32)c(=O)n1Cc1cccc(F)c1)N(CCN)C(=O)c1ccc(Br)cc1` [Compound 203]: under 30 µM.
Still for that read-out and setting: the same measure for `CC(C)[C@H](c1nc2c(oc3ccc(F)cc32)c(=O)n1Cc1ccc(Cl)o1)N(CCN)C(=O)c1ccc(Br)cc1` [Compound 204]: under 30 µM; for `CC(C)[C@H](c1nc2c(oc3ccc(F)cc32)c(=O)n1Cc1ccccc1)N(CCN)C(=O)c1ccc(Br)cc1` [Compound 205]: under 30 µM; for `Cc1ccc(C(=O)N(CCN)[C@@H](c2nc3c(oc4ccc(F)cc43)c(=O)n2Cc2ccccc2)C(C)C)c(F)c1F` [Compound 206]: under 30 µM.
As for `CC(C)[C@H](c1nc2c(oc3ccc(F)cc32)c(=O)n1Cc1ccccc1)N(CCN)C(=O)c1ccc(C(F)(F)F)cc1` [Compound 207], the IC50 is under 30 µM.
Same read-out and setting: next, `Cc1ccc(C(=O)N(CCN)[C@@H](c2nc3c(oc4ccc(F)cc43)c(=O)n2Cc2ccc(Br)s2)C(C)C)c(F)c1F` [Compound 209]: under 30 µM; `CC(C)[C@H](c1nc2c(oc3ccc(F)cc32)c(=O)n1Cc1ccc(Br)s1)N(CCN)C(=O)c1ccc(Br)cc1` [Compound 210]: under 30 µM; `Cc1ccc(C(=O)N(CCCN)[C@@H](c2nc3c(oc4ccc(F)cc43)c(=O)n2Cc2cc(C)cs2)C(C)C)cc1` [Compound 211]: under 30 µM.
`Cc1ccc(C(=O)N(CCN)[C@@H](c2nc3c(oc4ccc(F)cc43)c(=O)n2Cc2ccc(C(F)(F)F)o2)C(C)C)cc1` [Compound 213]: the half-inhibitory concentration (IC50) is under 30 µM.
The same measure, in the same setting: next, `Cc1ccc(C(=O)N(CCN)[C@@H](c2nc3c(oc4ccc(F)cc43)c(=O)n2Cc2ccc(C(F)(F)F)o2)C(C)C)cc1F` [Compound 214]: under 30 µM.
The same measure, in the same setting: the same measure for `Cc1ccc(C(=O)N(CCN)[C@@H](c2nc3c(oc4ccc(F)cc43)c(=O)n2Cc2cc(Br)cs2)C(C)C)cc1` [Compound 215]: under 30 µM; for `Cc1ccc(C(=O)N(CCN)[C@@H](c2nc3c(oc4ccc(F)cc43)c(=O)n2Cc2cc(Br)co2)C(C)C)cc1` [Compound 217]: under 30 µM; for `Cc1ccc(C(=O)N(CCN)[C@@H](c2nc3c(oc4ccc(F)cc43)c(=O)n2Cc2cc(Br)co2)C(C)C)cc1F` [Compound 218]: under 30 µM.
With `Cc1ccc(C(=O)N(CCN)[C@@H](c2nc3c(oc4ccc(F)cc43)c(=O)n2Cc2ccc(I)s2)C(C)C)cc1` [Compound 219], the concentration for half-maximal inhibition (IC50) was under 30 µM.
For `CC[C@@H](C)[C@H](c1nc2c(oc3ccc(F)cc32)c(=O)n1Cc1ccc(Br)o1)N(CCN)C(=O)c1ccc(C)cc1` [Compound 220], the half-maximal inhibitory concentration (IC50) is under 30 µM.
Same read-out and setting: the same measure for `Cc1ccc(C(=O)N(CCN)[C@@H](c2nc3c(oc4ccc(F)cc43)c(=O)n2Cc2cc(C)cs2)C2CC2)cc1` [Compound 222]: under 30 µM; for `Cc1ccc(C(=O)N(CCN)[C@@H](c2nc3c(oc4ccc(F)cc43)c(=O)n2Cc2ccc(Br)o2)C2CC2)cc1` [Compound 223]: under 30 µM; for `Cc1ccc(C(=O)N(CCN)[C@@H](c2nc3c(oc4ccc(F)cc43)c(=O)n2Cc2ccc(Cl)o2)C2CC2)cc1` [Compound 224]: under 30 µM.
Same read-out and setting: next, `Cc1ccc(C(=O)N(CCN)[C@@H](c2nc3c(oc4ccc(F)cc43)c(=O)n2Cc2ccccc2)C2CC2)cc1` [Compound 225]: under 30 µM; `Cc1ccc(C(=O)N(CCN)[C@@H](c2nc3c(oc4ccc(F)cc43)c(=O)n2Cc2cccs2)C2CC2)cc1` [Compound 226]: under 30 µM.

The next test concerns Human Colo205 cells. The experiment in a line: Cell cycle arrest assay (flowcytometry, propidium iodide). Type of test: cell-based. Conditions: DNA content by flowcytometry. The method, then:
The efficacy of a test compound to arrest cells as a KSP inhibitor was determined by flowcytometry analysis. Human Colo205 cells were grown in 6-well plates and treated the next day with the test compound for various time lengths. They were then scraped from plates using a rubber policeman, washed with PBS, and centrifuged at 1,000 rpm for 5 minutes. 1 ML of a buffer containing 10 μM of propidium iodide and 50 ug/ml of RNase A was used to re-suspend the cells. The cells were subsequently incubated in this buffer for 10 minutes at room temperature in the dark, passed through a filter to remove cell clumps, and observed under a Coulter Epics XL-MCL Training Modules flowcytometer.
With `Cc1ccc(C(=O)N(CCN)C(c2nc3c(oc4ccc(F)cc43)c(=O)n2Cc2ccccc2)C(C)C)cc1` (stereo not drawn) [Compound 62], the “shift in cell cycle population” value was “shift in the population of cells from a G0/G1 stage (2N DNA content) to a G2/M stage (4N DNA content)”.
